Where a SMILES comes first, the peptide text is derived from it. Bridges are numbered along the chain shown (N, C = ends). [ ]: non-standard residue; d: D form. The star is where a group is joined. Bip = N[C@@H](Cc1ccc(-c2ccccc2)cc1)C(=O)O; Aha = [N-]=[N+]=NCC[C@H](N)C(=O)O; Cha = N[C@@H](CC1CCCCC1)C(=O)O; Carboxymethyl = O=C(O)C*; Orn = NCCC[C@H](N)C(=O)O; Dab = NCC[C@H](N)C(=O)O; Dap = NC[C@H](N)C(=O)O; Bn = c1ccc(C*)cc1; Propargyl = C#CC*
target: T1, human PD-1 / PD-L1-Ig binding on Jurkat cell line over-expressing human PD-1 (Jurkat-PD-1) (Homo sapiens, UniProt Q15116); experiment: Jurkat-PD-1 Cell Binding High-Content Screening Assay (CBA); format: cell-based; details: Jurkat HPD1_PDL1 IC50, Jurkat-PD-1 cells, PE-labeled PD-L1-Ig 20 nM final
T1 construct: expressed in transfected cells; host or cells: Jurkat
Method in brief: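 Compounds were preincubated with Jurkat-hPD-1 cells in DMEM plus 10% fetal calf serum for 2 h at 37° C. Phycoerythrin-labeled PD-L1-Ig (20 nM final) was then added for 1 hour. Cells were fixed in 4% paraformaldehyde with Hoechst 33342, and bound fluorescence was quantified by high-content imaging.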

T1 sequence (Q15116 25-288): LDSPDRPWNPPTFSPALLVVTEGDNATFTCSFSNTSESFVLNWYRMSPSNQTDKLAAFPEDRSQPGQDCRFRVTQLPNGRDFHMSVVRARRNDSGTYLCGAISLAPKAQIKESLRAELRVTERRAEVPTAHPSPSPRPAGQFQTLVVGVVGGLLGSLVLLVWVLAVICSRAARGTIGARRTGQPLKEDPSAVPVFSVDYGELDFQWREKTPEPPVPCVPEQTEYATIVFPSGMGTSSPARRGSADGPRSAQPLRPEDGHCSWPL

Row | Compound | IC50 [µM]
1 | CC(C)C[C@H]1NC(=O)[C@H](CCCN)NC(=O)[C@H](C(C)C)NC(=O)[C@H](Cc2ccc(-c3ccccc3)cc2)NC(=O)[C@H](C(C)C)NC(=O)[C@H](Cc2c[nH]c3ccccc23)NC(=O)[C@H](CC(=O)O)NC(=O)[C@H](Cc2ccc(OCC(=O)O)cc2)NC(=O)[C@H](Cc2ccc(OCc3ccccc3)cc2)NC(=O)CSC[C@@H](C(=O)N[C@@H](C)C(N)=O)NC(=O)[C@H]([C@@H](C)O)NC(=O)[C@H](C(C)C)NC(=O)[C@H](CC2CCCCC2)NC(=O)[C@H](CCN)NC1=O [Compound 1527] | 0.103
2 | CC(C)C[C@H]1NC(=O)[C@H](CCCN)NC(=O)[C@H](C(C)C)NC(=O)[C@H](Cc2ccc(-c3ccccc3)cc2)NC(=O)[C@H](C(C)C)NC(=O)[C@H](Cc2c[nH]c3ccccc23)NC(=O)[C@H](CC(=O)O)NC(=O)[C@H](Cc2ccc(OCc3ccccc3)cc2)NC(=O)[C@H](CN)NC(=O)CSC[C@@H](C(=O)N[C@@H](C)C(N)=O)NC(=O)[C@H]([C@@H](C)O)NC(=O)[C@H](C(C)C)NC(=O)[C@H](CC2CCCCC2)NC(=O)[C@H](CCN)NC1=O [Compound 1528] | 0.1
3 | CC(C)C[C@H]1NC(=O)[C@H](CCCN)NC(=O)[C@H](C(C)C)NC(=O)[C@H](Cc2ccc(-c3ccccc3)cc2)NC(=O)[C@H](Cc2ccc(OCc3ccccc3)cc2)NC(=O)[C@H](Cc2c[nH]c3ccccc23)NC(=O)[C@H](CC(=O)O)NC(=O)[C@H](Cc2ccc(OCC(=O)O)cc2)NC(=O)[C@H](CN)NC(=O)CSC[C@@H](C(=O)N[C@@H](C)C(N)=O)NC(=O)[C@H]([C@@H](C)O)NC(=O)[C@H](C(C)C)NC(=O)[C@H](CC2CCCCC2)NC(=O)[C@H](CCN)NC1=O [Compound 1529] ({CH2CO}-[Dap]Y(Carboxymethyl)DWY(Bn)[Bip]V[Orn][dL][Dab][Cha]VTCA-NH2; thioether N-14) | 0.0435
4 | CC(C)C[C@H]1NC(=O)[C@H](CCCN)NC(=O)[C@H](Cc2ccc(OCc3ccccc3)cc2)NC(=O)[C@H](Cc2ccc(-c3ccccc3)cc2)NC(=O)[C@H](C(C)C)NC(=O)[C@H](Cc2c[nH]c3ccccc23)NC(=O)[C@H](CC(=O)O)NC(=O)[C@H](Cc2ccc(OCC(=O)O)cc2)NC(=O)[C@H](CN)NC(=O)CSC[C@@H](C(=O)N[C@@H](C)C(N)=O)NC(=O)[C@H]([C@@H](C)O)NC(=O)[C@H](C(C)C)NC(=O)[C@H](CC2CCCCC2)NC(=O)[C@H](CCN)NC1=O [Compound 1530] | 0.0949
5 | CC(C)C[C@H]1NC(=O)[C@H](CCCN)NC(=O)[C@H](C(C)C)NC(=O)[C@H](Cc2ccc(-c3ccccc3)cc2)NC(=O)[C@H](C(C)C)NC(=O)[C@H](Cc2c[nH]c3ccccc23)NC(=O)[C@H](CC(=O)O)NC(=O)[C@H](Cc2ccc(OCC(=O)O)cc2)NC(=O)[C@H](CN)NC(=O)CSC[C@@H](C(=O)N[C@@H](C)C(N)=O)NC(=O)[C@H]([C@@H](C)O)NC(=O)[C@H](C(C)C)NC(=O)[C@H](CC2CCCCC2)NC(=O)[C@H](Cc2ccc(OCc3ccccc3)cc2)NC1=O [Compound 1531] ({CH2CO}-[Dap]Y(Carboxymethyl)DWV[Bip]V[Orn][dL]Y(Bn)[Cha]VTCA-NH2; thioether N-14) | 0.707
6 | CC(C)C[C@H]1NC(=O)[C@H](CCCN)NC(=O)[C@H](C(C)C)NC(=O)[C@H](Cc2ccc(-c3ccccc3)cc2)NC(=O)[C@H](C(C)C)NC(=O)[C@H](Cc2c[nH]c3ccccc23)NC(=O)[C@H](CC(=O)O)NC(=O)[C@H](Cc2ccc(OCC(=O)O)cc2)NC(=O)[C@H](CN)NC(=O)CSC[C@@H](C(=O)N[C@@H](C)C(N)=O)NC(=O)[C@H]([C@@H](C)O)NC(=O)[C@H](Cc2ccc(OCc3ccccc3)cc2)NC(=O)[C@H](CC2CCCCC2)NC(=O)[C@H](CCN)NC1=O [Compound 1532] ({CH2CO}-[Dap]Y(Carboxymethyl)DWV[Bip]V[Orn][dL][Dab][Cha]Y(Bn)TCA-NH2; thioether N-14) | 0.111
7 | CC(C)C[C@H]1NC(=O)[C@H](CCCN)NC(=O)[C@H](C(C)C)NC(=O)[C@H](Cc2ccc(-c3ccccc3)cc2)NC(=O)[C@H](C(C)C)NC(=O)[C@H](Cc2c[nH]c3ccccc23)NC(=O)[C@H](CC(=O)O)NC(=O)[C@H](Cc2ccc(OCC(=O)O)cc2)NC(=O)[C@H](CN)NC(=O)CSC[C@@H](C(=O)N[C@@H](C)C(=O)N[C@@H](Cc2ccc(OCc3ccccc3)cc2)C(N)=O)NC(=O)[C@H]([C@@H](C)O)NC(=O)[C@H](C(C)C)NC(=O)[C@H](CC2CCCCC2)NC(=O)[C@H](CCN)NC1=O [Compound 1535] | 0.128

same assay, conditions: Jurkat-PD-1 cells, PE-labeled PD-L1-Ig 20 nM final; read-out: Jurkat HPD1_PDL1 IC50

Row | Compound | IC50 [µM]
8 | CC(C)C[C@H]1NC(=O)[C@H](CCCN)NC(=O)[C@H](CCC(=O)O)NC(=O)[C@H](Cc2ccc(-c3ccccc3)cc2)NC(=O)[C@H](C(C)C)NC(=O)[C@H](Cc2c[nH]c3ccccc23)NC(=O)[C@H](CC(=O)O)NC(=O)[C@H](Cc2ccc(OCC(=O)O)cc2)NC(=O)[C@H](CN)NC(=O)CSC[C@@H](C(=O)N[C@@H](C)C(N)=O)NC(=O)[C@H]([C@@H](C)O)NC(=O)[C@H](C(C)C)NC(=O)[C@H](CC2CCCCC2)NC(=O)[C@H](Cc2cnc[nH]2)NC1=O [Compound 1518] | 0.0187
9 | CC(C)C[C@H]1NC(=O)[C@H](CCCN)NC(=O)[C@H](C(C)C)NC(=O)[C@H](Cc2ccc(-c3ccccc3)cc2)NC(=O)[C@H](C(C)C)NC(=O)[C@H](Cc2c[nH]c3ccccc23)NC(=O)[C@H](CC(=O)O)NC(=O)[C@H](Cc2ccc(OCC(=O)O)cc2)NC(=O)[C@H](CN)NC(=O)CSC[C@@H](C(=O)N[C@@H](C)C(N)=O)NC(=O)[C@H]([C@@H](C)O)NC(=O)[C@H](C(C)C)NC(=O)[C@H](CC2CCCCC2)NC(=O)[C@H](CC(N)=O)NC1=O [Compound 1519] ({CH2CO}-[Dap]Y(Carboxymethyl)DWV[Bip]V[Orn][dL]N[Cha]VTCA-NH2; thioether N-14) | 0.0077
10 | CC(C)C[C@H]1NC(=O)[C@H](CCCN)NC(=O)[C@H](C(C)C)NC(=O)[C@H](Cc2ccc(-c3ccccc3)cc2)NC(=O)[C@H](C(C)C)NC(=O)[C@H](Cc2c[nH]c3ccccc23)NC(=O)[C@H](CC(=O)O)NC(=O)[C@H](Cc2ccc(OCC(=O)O)cc2)NC(=O)[C@H](CN)NC(=O)CSC[C@@H](C(=O)N[C@@H](C)C(N)=O)NC(=O)[C@H]([C@@H](C)O)NC(=O)[C@H](C(C)C)NC(=O)[C@H](CC2CCCCC2)NC(=O)[C@H](CCC(N)=O)NC1=O [Compound 1520] ({CH2CO}-[Dap]Y(Carboxymethyl)DWV[Bip]V[Orn][dL]Q[Cha]VTCA-NH2; thioether N-14) | 0.0105
11 | CC(C)C[C@H]1NC(=O)[C@H](CCCN)NC(=O)[C@H](C(C)C)NC(=O)[C@H](Cc2ccc(-c3ccccc3)cc2)NC(=O)[C@H](C(C)C)NC(=O)[C@H](Cc2c[nH]c3ccccc23)NC(=O)[C@H](CC(=O)O)NC(=O)[C@H](Cc2ccc(OCC(=O)O)cc2)NC(=O)[C@H](CN)NC(=O)CSC[C@@H](C(=O)N[C@@H](C)C(N)=O)NC(=O)[C@H]([C@@H](C)O)NC(=O)[C@H](C(C)C)NC(=O)[C@H](CC2CCCCC2)NC(=O)[C@H](CC(=O)O)NC1=O [Compound 1521] ({CH2CO}-[Dap]Y(Carboxymethyl)DWV[Bip]V[Orn][dL]D[Cha]VTCA-NH2; thioether N-14) | 0.0177
12 | CC(C)C[C@H]1NC(=O)[C@H](CCCN)NC(=O)[C@H](C(C)C)NC(=O)[C@H](Cc2ccc(-c3ccccc3)cc2)NC(=O)[C@H](C(C)C)NC(=O)[C@H](Cc2c[nH]c3ccccc23)NC(=O)[C@H](CC(=O)O)NC(=O)[C@H](Cc2ccc(OCC(=O)O)cc2)NC(=O)[C@H](CN)NC(=O)CSC[C@@H](C(=O)N[C@@H](C)C(N)=O)NC(=O)[C@H]([C@@H](C)O)NC(=O)[C@H](C(C)C)NC(=O)[C@H](CC2CCCCC2)NC(=O)[C@H](CCC(=O)O)NC1=O [Compound 1522] ({CH2CO}-[Dap]Y(Carboxymethyl)DWV[Bip]V[Orn][dL]E[Cha]VTCA-NH2; thioether N-14) | 0.0233
13 | CC(C)C[C@H]1NC(=O)[C@H](CCCN)NC(=O)[C@H](C(C)C)NC(=O)[C@H](Cc2ccc(-c3ccccc3)cc2)NC(=O)[C@H](C(C)C)NC(=O)[C@H](Cc2c[nH]c3ccccc23)NC(=O)[C@H](CC(=O)O)NC(=O)[C@H](Cc2ccc(OCC(=O)O)cc2)NC(=O)[C@H](CN)NC(=O)CSC[C@@H](C(=O)N[C@@H](C)C(N)=O)NC(=O)[C@H]([C@@H](C)O)NC(=O)[C@H](C(C)C)NC(=O)[C@H](CC2CCCCC2)NC(=O)[C@H]([C@@H](C)O)NC1=O [Compound 1524] ({CH2CO}-[Dap]Y(Carboxymethyl)DWV[Bip]V[Orn][dL]T[Cha]VTCA-NH2; thioether N-14) | 0.0092
14 | CC(C)C[C@H]1NC(=O)[C@H](CCCN)NC(=O)[C@H](C(C)C)NC(=O)[C@H](Cc2ccc(-c3ccccc3)cc2)NC(=O)[C@H](C(C)C)NC(=O)[C@H](Cc2c[nH]c3ccccc23)NC(=O)[C@H](CC(=O)O)NC(=O)[C@H](Cc2ccc(OCC(=O)O)cc2)NC(=O)[C@H](CN)NC(=O)CSC[C@@H](C(=O)N[C@@H](C)C(N)=O)NC(=O)[C@H]([C@@H](C)O)NC(=O)[C@H](C(C)C)NC(=O)[C@H](CC2CCCCC2)NC(=O)[C@H](Cc2cnc[nH]2)NC1=O [Compound 1525] | 0.0154
15 | C#CCOc1ccc(C[C@@H]2NC(=O)[C@H](CN)NC(=O)CSC[C@@H](C(=O)N[C@@H](CCN=[N+]=[N-])C(N)=O)NC(=O)[C@H]([C@@H](C)O)NC(=O)[C@H](C(C)C)NC(=O)[C@H](CC3CCCCC3)NC(=O)[C@H](CCN)NC(=O)[C@@H](CC(C)C)NC(=O)[C@H](CCCN)NC(=O)[C@H](CCC(=O)O)NC(=O)[C@H](Cc3ccc(-c4ccccc4)cc3)NC(=O)[C@H](C(C)C)NC(=O)[C@H](Cc3c[nH]c4ccccc34)NC(=O)[C@H](CC(=O)O)NC2=O)cc1 [Compound 1536] ({CH2CO}-[Dap]Y(Propargyl)DWV[Bip]E[Orn][dL][Dab][Cha]VTC[Aha]-NH2; thioether N-14) | 0.0593
